These are literature values, as cited in patent US7422908B2, “Chemiluminescent 1,2-dioxetanes” (priority 2002, dated 2008).

The conditions of series [1]: thermal decomposition.
For series [2] the following is noted: compared with 1,2-dioxetanes (14) and (15); CH3 group replaced with CH2CH2CH2COOH.

For the molecule `C1C2CC3CC1CC(C2)C31OOC12C1CC3CC(C1)CC2C3` (centres unmarked) [Dioxetane 5], the “decomposes at (temperature)” value in series [1] is 150 °C.

Consider `O=C(O)CCCOC1(c2cccc(OP(=O)(O)O)c2)OOC12C1CC3CC(C1)CC2C3` (centres unmarked) [Dioxetane 16], for which, in series [2], the “solubility in an aqueous system” value is “more soluble in an aqueous system than 1,2-dioxetane (14) and (15)”.
